Consider one compound from article PMC7180948, “New Insights into 4-Anilinoquinazolines as Inhibitors of Cardiac Troponin I–Interacting Kinase (TNNi3K)” (Molecules, 2020).

What all share (assay): biochemical
Parameters in all cases: KINOMEscan competition binding panel (Eurofins DiscoverX), single concentration, percent inhibition
Common to all, as to conditions: read-out: 15 at 1 µM % inhibition

In one experiment the target is T1, ABL1-phosphorylated (Homo sapiens, UniProt P00519).
T1 construct: phosphorylated
The procedure, abridged:
(§1)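 A single 1 µM concentration of each compound is screened across upwards of 400 human kinases using the KINOMEscan format.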

The target in another experiment is AURKA (Homo sapiens, UniProt O14965). Put shortly: as §1
The target of a further experiment is AURKC (Homo sapiens, UniProt Q9UQB9). The procedure, abridged: as §1
The target of the next experiment is CDK4 (Homo sapiens, UniProt P11802). The procedure, abridged: as §1
The next experiment deals with CDKL2 (Homo sapiens, UniProt Q92772). Put shortly:
as §1

The target in a further experiment is CSNK1G2 (Homo sapiens, UniProt P78368). The procedure, abridged:
as §1

The target in another experiment is T2, DMPK2 (Homo sapiens, UniProt Q6DT37).
T2 construct: gene CDC42BPG
Put shortly: as §1

In another experiment the target is EPHA8 (Homo sapiens, UniProt P29322). The procedure, abridged:
as §1

In another experiment the target is T3, ERK2 (Homo sapiens, UniProt P28482).
T3 construct: gene MAPK1
Put shortly:
as §1

Another experiment has as its target HUNK (Homo sapiens, UniProt P57058). The procedure, abridged: as §1
For a further experiment, the target named is T4, IKK-epsilon (Homo sapiens, UniProt Q14164).
T4 construct: gene IKBKE
The procedure, abridged:
as §1

The next experiment concerns the target PAK4 (Homo sapiens, UniProt O96013). The procedure, abridged:
as §1

Another experiment concerns the target PDGFRB (Homo sapiens, UniProt P09619). The procedure, abridged: as §1
A further experiment concerns the target T5, PIP5K2B (Homo sapiens, UniProt P78356).
T5 construct: gene PIP4K2B
Put shortly: as §1

For another experiment, the target named is PRKCH (Homo sapiens, UniProt P24723). The procedure, abridged:
as §1

The target of the next experiment is PRKD3 (Homo sapiens, UniProt O94806). The procedure, abridged: as §1
The target of a further experiment is PRKX (Homo sapiens, UniProt P51817). Put shortly:
as §1

For experiment [1], the target named is T6, RPS6KA4(Kin.Dom.1-N-terminal) (Homo sapiens, UniProt O75676).
T6 construct: Kin.Dom.1-N-terminal
The procedure, abridged:
as §1

Experiment [2] has as its target T7, RPS6KA5(Kin.Dom.2-C-terminal) (Homo sapiens, UniProt O75582).
T7 construct: Kin.Dom.2-C-terminal
The procedure, abridged: as §1

The target in experiment [3] is T8, RSK1(Kin.Dom.2-C-terminal) (Homo sapiens, UniProt Q15418).
T8 construct: gene RPS6KA1; Kin.Dom.2-C-terminal
Put shortly:
as §1

A further experiment addresses T9, SGK (Homo sapiens, UniProt O00141).
T9 construct: gene SGK1
The procedure, abridged:
as §1

The target in another experiment is STK39 (Homo sapiens, UniProt Q9UEW8). The procedure, abridged:
as §1

Another experiment concerns the target ULK2 (Homo sapiens, UniProt Q8IYT8). The procedure, abridged:
as §1

A further experiment concerns the target ZAP70 (Homo sapiens, UniProt P43403). Put shortly:
as §1

T1 sequence (P00519 whole entry): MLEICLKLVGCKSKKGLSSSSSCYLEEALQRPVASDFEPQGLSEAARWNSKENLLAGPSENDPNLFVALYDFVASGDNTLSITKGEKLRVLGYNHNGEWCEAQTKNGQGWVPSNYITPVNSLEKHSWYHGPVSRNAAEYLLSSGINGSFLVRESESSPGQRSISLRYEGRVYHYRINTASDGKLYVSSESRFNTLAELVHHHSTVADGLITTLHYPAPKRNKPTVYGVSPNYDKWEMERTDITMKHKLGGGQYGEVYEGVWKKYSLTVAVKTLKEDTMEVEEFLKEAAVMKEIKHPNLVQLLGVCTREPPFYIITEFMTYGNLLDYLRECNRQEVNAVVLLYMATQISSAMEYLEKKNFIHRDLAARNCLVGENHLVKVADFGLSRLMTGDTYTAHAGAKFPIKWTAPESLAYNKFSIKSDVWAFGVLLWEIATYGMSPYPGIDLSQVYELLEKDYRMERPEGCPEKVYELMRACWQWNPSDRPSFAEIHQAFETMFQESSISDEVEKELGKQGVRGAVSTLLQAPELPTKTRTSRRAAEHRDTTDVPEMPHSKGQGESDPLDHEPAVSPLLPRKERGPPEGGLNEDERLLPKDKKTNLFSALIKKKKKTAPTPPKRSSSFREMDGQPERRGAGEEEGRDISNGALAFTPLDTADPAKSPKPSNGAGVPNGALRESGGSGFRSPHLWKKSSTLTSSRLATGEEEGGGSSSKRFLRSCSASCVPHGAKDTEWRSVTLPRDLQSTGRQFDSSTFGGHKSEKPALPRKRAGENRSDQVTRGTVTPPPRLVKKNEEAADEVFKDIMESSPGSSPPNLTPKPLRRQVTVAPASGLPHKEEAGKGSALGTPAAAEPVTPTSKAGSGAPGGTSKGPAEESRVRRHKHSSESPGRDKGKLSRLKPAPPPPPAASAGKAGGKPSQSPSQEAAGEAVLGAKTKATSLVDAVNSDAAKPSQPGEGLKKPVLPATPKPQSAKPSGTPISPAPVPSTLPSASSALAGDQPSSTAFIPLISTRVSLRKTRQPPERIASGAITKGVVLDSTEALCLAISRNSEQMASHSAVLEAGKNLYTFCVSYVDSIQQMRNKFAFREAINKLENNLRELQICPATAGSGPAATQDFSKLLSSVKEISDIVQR
T3 sequence (P28482 whole entry): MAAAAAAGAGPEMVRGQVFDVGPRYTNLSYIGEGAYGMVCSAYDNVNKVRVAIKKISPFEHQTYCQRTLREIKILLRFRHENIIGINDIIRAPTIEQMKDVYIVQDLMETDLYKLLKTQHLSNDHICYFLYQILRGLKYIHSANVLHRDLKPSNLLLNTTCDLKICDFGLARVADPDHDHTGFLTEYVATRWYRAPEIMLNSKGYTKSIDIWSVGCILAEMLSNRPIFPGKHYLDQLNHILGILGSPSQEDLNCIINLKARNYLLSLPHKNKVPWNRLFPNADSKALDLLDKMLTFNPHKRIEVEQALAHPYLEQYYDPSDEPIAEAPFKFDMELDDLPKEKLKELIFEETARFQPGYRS
PRKCH, sequence (P24723 whole entry): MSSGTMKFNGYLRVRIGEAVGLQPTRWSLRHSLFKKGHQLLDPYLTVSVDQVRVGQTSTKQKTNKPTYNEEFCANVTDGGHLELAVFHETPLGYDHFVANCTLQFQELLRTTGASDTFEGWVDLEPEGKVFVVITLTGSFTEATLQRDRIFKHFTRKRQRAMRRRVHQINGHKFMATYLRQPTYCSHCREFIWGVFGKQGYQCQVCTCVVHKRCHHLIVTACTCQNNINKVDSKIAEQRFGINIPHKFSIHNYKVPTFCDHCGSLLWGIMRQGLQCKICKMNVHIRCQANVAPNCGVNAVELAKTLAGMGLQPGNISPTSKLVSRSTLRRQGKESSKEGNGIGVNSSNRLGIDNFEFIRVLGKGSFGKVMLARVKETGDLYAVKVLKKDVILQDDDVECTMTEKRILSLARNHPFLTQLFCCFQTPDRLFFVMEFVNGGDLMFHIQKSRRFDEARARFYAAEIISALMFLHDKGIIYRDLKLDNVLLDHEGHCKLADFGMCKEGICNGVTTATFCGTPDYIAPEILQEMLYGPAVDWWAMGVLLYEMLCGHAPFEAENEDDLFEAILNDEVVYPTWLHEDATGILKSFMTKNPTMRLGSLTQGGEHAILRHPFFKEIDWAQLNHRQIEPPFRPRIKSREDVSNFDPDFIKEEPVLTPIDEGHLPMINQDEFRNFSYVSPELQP
T7 sequence (O75582 whole entry): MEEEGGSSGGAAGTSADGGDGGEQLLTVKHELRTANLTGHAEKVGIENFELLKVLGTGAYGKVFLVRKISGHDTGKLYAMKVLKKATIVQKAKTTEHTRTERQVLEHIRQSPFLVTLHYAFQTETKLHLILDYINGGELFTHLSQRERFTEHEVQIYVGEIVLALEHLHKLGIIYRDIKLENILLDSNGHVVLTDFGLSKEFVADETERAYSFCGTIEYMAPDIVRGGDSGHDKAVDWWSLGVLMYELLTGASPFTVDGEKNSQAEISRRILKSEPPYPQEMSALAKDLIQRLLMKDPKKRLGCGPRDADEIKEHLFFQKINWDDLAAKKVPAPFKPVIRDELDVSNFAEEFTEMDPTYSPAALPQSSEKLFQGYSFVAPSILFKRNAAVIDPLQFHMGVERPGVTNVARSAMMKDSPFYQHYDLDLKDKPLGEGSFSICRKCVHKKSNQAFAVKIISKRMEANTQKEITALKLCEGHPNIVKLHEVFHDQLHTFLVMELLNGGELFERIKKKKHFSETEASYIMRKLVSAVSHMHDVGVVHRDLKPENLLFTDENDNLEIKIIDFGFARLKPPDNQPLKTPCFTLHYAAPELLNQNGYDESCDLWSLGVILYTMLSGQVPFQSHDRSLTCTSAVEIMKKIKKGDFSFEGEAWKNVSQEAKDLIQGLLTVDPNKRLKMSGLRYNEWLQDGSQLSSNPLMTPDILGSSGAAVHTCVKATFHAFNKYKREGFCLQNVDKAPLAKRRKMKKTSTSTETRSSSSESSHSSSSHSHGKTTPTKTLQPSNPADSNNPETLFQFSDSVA
PAK4, sequence (O96013 whole entry): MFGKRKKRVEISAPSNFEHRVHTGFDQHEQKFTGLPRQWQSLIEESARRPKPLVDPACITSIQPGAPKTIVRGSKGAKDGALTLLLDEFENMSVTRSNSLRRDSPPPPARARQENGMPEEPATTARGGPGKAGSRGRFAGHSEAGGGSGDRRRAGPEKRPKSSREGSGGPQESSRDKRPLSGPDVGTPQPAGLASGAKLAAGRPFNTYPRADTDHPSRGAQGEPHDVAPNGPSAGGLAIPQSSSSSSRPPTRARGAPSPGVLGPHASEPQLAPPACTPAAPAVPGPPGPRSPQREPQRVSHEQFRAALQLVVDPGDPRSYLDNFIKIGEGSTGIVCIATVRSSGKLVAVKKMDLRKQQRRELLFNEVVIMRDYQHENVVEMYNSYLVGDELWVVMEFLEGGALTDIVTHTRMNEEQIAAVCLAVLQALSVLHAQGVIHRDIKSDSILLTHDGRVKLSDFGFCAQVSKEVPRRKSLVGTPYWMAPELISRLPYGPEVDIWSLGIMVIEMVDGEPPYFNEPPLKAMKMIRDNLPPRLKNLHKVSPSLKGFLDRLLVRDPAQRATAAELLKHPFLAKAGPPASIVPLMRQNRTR
T6 sequence (O75676 whole entry): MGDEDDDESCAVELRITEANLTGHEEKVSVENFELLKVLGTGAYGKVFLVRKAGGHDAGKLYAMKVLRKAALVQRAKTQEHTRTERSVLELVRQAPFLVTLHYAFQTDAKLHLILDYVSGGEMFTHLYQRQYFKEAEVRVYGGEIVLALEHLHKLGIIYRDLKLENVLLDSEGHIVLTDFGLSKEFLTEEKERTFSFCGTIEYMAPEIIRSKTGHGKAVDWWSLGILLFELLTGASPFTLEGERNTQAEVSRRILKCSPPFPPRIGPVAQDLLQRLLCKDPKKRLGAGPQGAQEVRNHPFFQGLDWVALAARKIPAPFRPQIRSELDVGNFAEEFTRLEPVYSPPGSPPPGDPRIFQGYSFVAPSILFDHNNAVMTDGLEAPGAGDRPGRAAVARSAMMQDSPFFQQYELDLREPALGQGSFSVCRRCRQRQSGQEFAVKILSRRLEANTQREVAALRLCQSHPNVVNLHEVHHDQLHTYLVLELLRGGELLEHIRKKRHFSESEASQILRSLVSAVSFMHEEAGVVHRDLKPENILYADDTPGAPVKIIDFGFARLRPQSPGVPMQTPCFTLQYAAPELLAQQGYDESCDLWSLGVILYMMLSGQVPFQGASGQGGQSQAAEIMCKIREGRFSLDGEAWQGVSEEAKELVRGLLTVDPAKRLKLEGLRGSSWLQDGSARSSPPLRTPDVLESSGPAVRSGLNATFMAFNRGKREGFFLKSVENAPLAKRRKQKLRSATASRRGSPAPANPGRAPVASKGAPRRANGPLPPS
T9 sequence (O00141 whole entry): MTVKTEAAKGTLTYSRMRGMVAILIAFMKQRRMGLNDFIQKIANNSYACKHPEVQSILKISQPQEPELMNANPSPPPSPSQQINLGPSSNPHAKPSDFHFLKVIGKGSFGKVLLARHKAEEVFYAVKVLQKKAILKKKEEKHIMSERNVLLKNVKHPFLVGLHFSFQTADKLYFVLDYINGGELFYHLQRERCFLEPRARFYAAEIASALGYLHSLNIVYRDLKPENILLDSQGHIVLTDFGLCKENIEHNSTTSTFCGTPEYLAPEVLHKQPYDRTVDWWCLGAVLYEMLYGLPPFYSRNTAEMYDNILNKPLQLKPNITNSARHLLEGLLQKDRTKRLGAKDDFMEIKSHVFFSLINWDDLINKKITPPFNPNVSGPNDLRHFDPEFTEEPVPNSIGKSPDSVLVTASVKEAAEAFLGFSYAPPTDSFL

Turning to `CNS(=O)(=O)c1ccc(N(C)C)c(Nc2nc(C)nc3cc(OC)c(OC)cc23)c1` [compound 15, 3-((6,7-dimethoxy-2-methylquinazolin-4-yl)amino)-4-(dimethylamino)-N-methylbenzenesulfonamide], the inhibition (usually the percentage by which the read-out fell short of the control) at 1 µM is 0% at ABL1-phosphorylated; 14% at AURKA; 0% on AURKC; 21% at CDK4; 4% at CDKL2; 0% at CSNK1G2. Besides, the inhibition at 1 µM was 5% at DMPK2; 3% on EPHA8; 0% on ERK2; 0% at HUNK; 0% on IKK-epsilon; 0% on PAK4. The inhibition at 1 µM at PDGFRB was determined as 10%; at PIP5K2B it was 0%; on PRKCH it was 0%; at PRKD3, 0%; on PRKX it was 0%; in experiment [1], 3%. Also, the inhibition at 1 µM in experiment [2] was found to be 8%; in [3], 5%; on SGK, 39%; at STK39 it was 2%; at ULK2 it was 9%; on ZAP70, 0%.
